Experimental data reported in patent publication US20210094919A1, “KRAS MUTANT PROTEIN INHIBITORS” (Jacobio Pharmaceuticals Co., Ltd., priority 2019, published 2021).

molecular target: T1, HIS-KRAS (G12C, aa 2-185) (Homo sapiens, UniProt P01116, G12C); assay: SOS1 catalyzed nucleotide exchange assay (TR-FRET); format: biochemical; details: GDP-loaded HIS-KRAS (G12C) pre-incubated with compound 1 hour, SOS1 ExD and BODIPY FL GTP added, 4 hours at 25° C.
T1 construct: HIS-KRAS (G12C, aa 2-185, Sino biological); purchased Sino biological
Description: HIS-KRAS (G12C, aa 2-185, Sino biological) was diluted to 5 μM in EDTA buffer (20 mM HEPES, pH 7.4, 50 mM NaCl, 10 mM EDTA, 0.01% (v/v) Tween-20) and incubated for 30 min at 25° C. The EDTA pretreated HIS-KRAS (G12C) was diluted to 12 nM in assay buffer (25 mM HEPES, pH 7.4, 120 mM NaCl, 5 mM MgCl2, 1 mM DTT, 0.01% (v/v) Tween 20, 0.1% (w/v) BSA) containing 120 nM GDP (Sigma) and MAb Anti 6HIS-Tb cryptate Gold (Cisbio) and incubated for 1 hour at 25° C. to prepare GDP-loaded HIS-KRAS (G12C). The GDP-loaded HIS-KRAS (G12C) was pre-incubation with diluted compounds in a 384-well plate (Greiner) for 1 hour, then purified SOS1 ExD (Flag tag, aa 564-1049) and BODIPY™ FL GTP (Invitrogen) were added to the assay wells (Final concentration: 3 nM HIS-KRAS (G12C), 2 μM SOS1 ExD, 80 nM BODIPY™ FL GTP, 21 ng/mL MAb Anti 6HIS-Tb cryptate Gold) and incubated for 4 hours at 25° C. TR-FRET signals were then read on Tecan Spark multimode microplate reader. The parameters were F486: Excitation 340 (35) nm, Emission 486 (10) nm, Lag time 100 las, Integration time 200 las; F515: Excitation 340 (35) nm, Emission 515 (10) nm, Lag time 100 las, Integration time 200 las. TR-FRET ratios for each individual wells were calculated by equation: TR-FRET ratio=(Signal F515/Signal F486)*10000. Then the data were analyzed using a 4-parameter logistic model to calculate IC50 values.

T1 sequence (P01116 2-185 isoform P01116-2 G12C): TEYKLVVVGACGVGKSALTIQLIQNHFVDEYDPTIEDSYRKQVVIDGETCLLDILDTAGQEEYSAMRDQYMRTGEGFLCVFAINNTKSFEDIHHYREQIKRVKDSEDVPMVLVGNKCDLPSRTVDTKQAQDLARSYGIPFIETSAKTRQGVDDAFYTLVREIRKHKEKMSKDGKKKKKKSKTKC

Compound	IC50 [µM]
C=CC(=O)N1CCN(c2c(C#N)c(OC[C@@H]3CCCN3C)nc3c2CCN(c2cccc4cccc(C)c24)C3)C[C@@H]1C [Compound 6, 4-((S)-4-acryloyl-3-methylpiperazin-1-yl)-7-(8-methylnaphthalen-1-yl)-2-(((S)-1-methylpyrrolidin-2-yl)methoxy)-5,6,7,8-tetrahydro-1,7-naphthyridine-3-carbonitrile]	> 1
C=CC(=O)N1CCN(c2c(C#N)c(OC[C@@H]3CCCN3C)nc3c2CCN(c2cccc4cccc(C)c24)C3)CC1 [Compound 2, (S)-4-(4-acryloylpiperazin-1-yl)-7-(8-methylnaphthalen-1-yl)-2-((1-methylpyrrolidin-2-yl)methoxy)-5,6,7,8-tetrahydro-1,7-naphthyridine-3-carbonitrile]	> 1
C=CC(=O)N1CCN(c2c(C#N)c(OC[C@@H]3CCCN3C)nc3c2CCN(c2cccc4cccc(C)c24)C3)CC1CC#N (stereo partly drawn) [Compound 1, 4-(4-acryloyl-3-(cyanomethyl)piperazin-1-yl)-7-(8-methylnaphthalen-1-yl)-2-(((S)-1-methylpyrrolidin-2-yl)methoxy)-5,6,7,8-tetrahydro-1,7-naphthyridine-3-carbonitrile]	0.0531
C=CC(=O)N1CCN(c2c(C#N)c(OC[C@@H]3CCCN3C)nc3c2CCN(c2cccc4cccc(C)c24)C3)C[C@H]1C [Compound 5, 4-((R)-4-acryloyl-3-methylpiperazin-1-yl)-7-(8-methylnaphthalen-1-yl)-2-(((S)-1-methylpyrrolidin-2-yl)methoxy)-5,6,7,8-tetrahydro-1,7-naphthyridine-3-carbonitrile]	> 1
C=CC(=O)N1[C@H](C)CN(c2c(C#N)c(OC[C@@H]3CCCN3C)nc3c2CCN(c2cccc4cccc(C)c24)C3)C[C@@H]1C [Compound 3, 4-((3S,5R)-4-acryloyl-3,5-dimethylpiperazin-1-yl)-7-(8-methylnaphthalen-1-yl)-2-(((S)-1-methylpyrrolidin-2-yl)methoxy)-5,6,7,8-tetrahydro-1,7-naphthyridine-3-carbonitrile]	> 1
C=CC(=O)N1CC(Nc2c(C#N)c(OC[C@@H]3CCCN3C)nc3c2CCN(c2cccc4cccc(C)c24)C3)C1 [Compound 4, (S)-4-((1-acryloylazetidin-3-yl)amino)-7-(8-methylnaphthalen-1-yl)-2-((1-methylpyrrolidin-2-yl)methoxy)-5,6,7,8-tetrahydro-1,7-naphthyridine-3-carbonitrile]	> 1
